Assay [1] deals with T1, Endothelin receptor type B (Homo sapiens, UniProt P24530).
T1 sequence (P24530 whole entry): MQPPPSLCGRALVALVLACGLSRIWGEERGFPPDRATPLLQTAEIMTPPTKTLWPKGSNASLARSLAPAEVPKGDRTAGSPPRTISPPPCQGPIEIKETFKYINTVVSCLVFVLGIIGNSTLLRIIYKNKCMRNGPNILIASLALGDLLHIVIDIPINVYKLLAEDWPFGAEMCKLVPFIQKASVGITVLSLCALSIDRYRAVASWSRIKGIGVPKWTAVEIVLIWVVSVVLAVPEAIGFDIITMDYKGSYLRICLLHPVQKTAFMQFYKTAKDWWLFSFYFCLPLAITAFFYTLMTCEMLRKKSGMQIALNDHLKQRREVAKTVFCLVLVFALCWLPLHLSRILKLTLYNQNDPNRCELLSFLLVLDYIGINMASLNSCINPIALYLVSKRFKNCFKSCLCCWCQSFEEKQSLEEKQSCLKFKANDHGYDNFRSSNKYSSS
The experiment in a line: Inhibitory activity against I-labeled ET-1 binding to Endothelin B receptor.

Assay [2] concerns the target Endothelin receptor, ET-A/ET-B (Homo sapiens) (UniProt P24530+P25101). The experiment in a line: Selectivity was calculated as the ratio of IC50 of Endothelin B receptor / IC50 of Endothelin A receptor. It counts as protein assay.
Assay [3] has as its target T2, Endothelin-1 receptor (Homo sapiens, UniProt P25101).
T2 sequence (P25101 whole entry): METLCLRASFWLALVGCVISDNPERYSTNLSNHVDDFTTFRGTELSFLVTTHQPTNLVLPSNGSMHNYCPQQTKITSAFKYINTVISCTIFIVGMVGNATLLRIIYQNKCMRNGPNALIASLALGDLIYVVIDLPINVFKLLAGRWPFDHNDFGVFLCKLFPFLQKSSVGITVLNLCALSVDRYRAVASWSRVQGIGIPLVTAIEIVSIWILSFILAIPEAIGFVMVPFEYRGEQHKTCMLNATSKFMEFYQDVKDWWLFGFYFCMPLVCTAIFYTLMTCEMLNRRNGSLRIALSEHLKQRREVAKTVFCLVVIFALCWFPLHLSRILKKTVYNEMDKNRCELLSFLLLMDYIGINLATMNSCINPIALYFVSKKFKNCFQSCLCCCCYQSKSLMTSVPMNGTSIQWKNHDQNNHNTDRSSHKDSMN
The experiment in a line: Inhibitory activity against I-labeled ET-1 binding to Endothelin A receptor.

In general, IC50 refers to the concentration that inhibits the measured activity by half. Lower therefore signals greater potency. On to `COc1ccc([C@@H]2c3nc(NC(C)C)ccc3C(c3ccc4c(c3)OCO4)[C@H]2C(=O)O)cc1` (single isomer, unassigned), for which the figures for the IC50 in assay [1] and in assay [3] were 42 nM and 0.1 nM, respectively. In addition, in assay [2], the Ratio is 420.

`COc1ccc([C@@H]2c3nc(C)ccc3[C@H](c3ccc4c(c3)OCO4)[C@H]2C(=O)O)cc1`: the results for the IC50 in assay [1] and in assay [3] were 100 nM and 5.7 nM, respectively. The Ratio in assay [2] was 18.

As to `COc1ccc([C@@H]2c3nc(CC(C)C)ccc3[C@H](c3ccc4c(c3)OCO4)[C@H]2C(=O)O)cc1`, the figures for the IC50 in assay [1] and in assay [3] were 8.4 nM and 0.32 nM, respectively. Also, in assay [2], the Ratio is 26.

Consider `COc1ccc([C@@H]2c3nc(CCC(=O)O)ccc3C(c3ccc4c(c3)OCO4)[C@H]2C(=O)O)cc1` (single isomer, unassigned), for which the IC50 in assay [1] amounted to 530 nM; in assay [3], 150 nM. Also, the Ratio in assay [2] is 3.5.

In the case of `C=CCCc1ccc2c(n1)[C@@H](c1ccc(OC)cc1)[C@H](C(=O)O)[C@H]2c1ccc2c(c1)OCO2`, the IC50 was 14 nM in assay [1] and 0.2 nM in assay [3]. Besides, the Ratio in assay [2] was 70.

With `CCCCCc1ccc2c(n1)[C@@H](c1ccc(OC)cc1)[C@H](C(=O)O)[C@H]2c1ccc2c(c1)OCO2`, the IC50 in assay [1] came out at 9.1 nM; in assay [3], 1.9 nM. Further, the Ratio in assay [2] was 4.8.

As to `COc1ccc([C@@H]2c3nc(-c4ccccc4)ccc3C(c3ccc4c(c3)OCO4)[C@H]2C(=O)O)cc1` (single isomer, unassigned), the IC50 was 130 nM in assay [1] and 15 nM in assay [3]. Moreover, the Ratio in assay [2] was 8.7.

Regarding `CCOCc1ccc2c(n1)[C@@H](c1ccc(OC)cc1)[C@H](C(=O)O)C2c1ccc2c(c1)OCO2` (single isomer, unassigned), the IC50 in assay [1] was found to be 140 nM; in assay [3] it was 0.51 nM. The Ratio in assay [2] is 270.

On to `COc1ccc([C@@H]2c3nc(N(C)C(C)C)ccc3C(c3ccc4c(c3)OCO4)[C@H]2C(=O)O)cc1` (single isomer, unassigned), for which the IC50 in assay [1] was found to be 14 nM; in assay [3], 3.2 nM. Further, in assay [2], the Ratio was 4.4.

On to `COc1ccc([C@@H]2c3nc(C4CC4)ccc3[C@H](c3ccc4c(c3)OCO4)[C@H]2C(=O)O)cc1`, for which the IC50 in assay [1] was 63 nM; in assay [3] it was 1.6 nM. Further, the Ratio in assay [2] was 39.

As to `CCCCc1ccc2c(n1)[C@@H](c1ccc(OC)cc1)[C@H](C(=O)O)[C@H]2c1ccc2c(c1)OCO2`, the IC50 in assay [1] turned out to be 11 nM; in assay [3], 0.21 nM. In addition, the Ratio in assay [2] is 52.

For `COc1ccc([C@@H]2c3nc(N4CCCC4)ccc3C(c3ccc4c(c3)OCO4)[C@H]2C(=O)O)cc1` (single isomer, unassigned), the IC50 in assay [1] came to 21 nM; in assay [3] it was 2.2 nM. In addition, in assay [2], the Ratio was 9.5.

For the compound `CCCOc1ccc2c(n1)[C@@H](c1ccc(OC)cc1)[C@H](C(=O)O)C2c1ccc2c(c1)OCO2` (single isomer, unassigned), the IC50 in assay [1] was 65 nM; in assay [3], 0.92 nM. Moreover, in assay [2], the Ratio was 71.

As for `COc1ccc([C@@H]2c3ncccc3[C@H](c3ccc4c(c3)OCO4)[C@H]2C(=O)O)cc1`, the IC50 was found to be 410 nM in assay [1] and 2.4 nM in assay [3]. Further, the Ratio in assay [2] is 170.

Turning to `CCCNc1ccc2c(n1)[C@@H](c1ccc(OC)cc1)[C@H](C(=O)O)C2c1ccc2c(c1)OCO2` (single isomer, unassigned), the IC50 in assay [1] was 63 nM; in assay [3] it was 0.12 nM. Besides, the Ratio in assay [2] was 520.

Regarding `CCc1ccc2c(n1)[C@@H](c1ccc(OC)cc1)[C@H](C(=O)O)[C@H]2c1ccc2c(c1)OCO2`, the IC50 in assay [1] came to 87 nM; in assay [3], 4.5 nM. Moreover, the Ratio in assay [2] is 19.

On to `COc1ccc([C@@H]2c3nc(CCCO)ccc3C(c3ccc4c(c3)OCO4)[C@H]2C(=O)O)cc1` (single isomer, unassigned), for which the IC50 in assay [1] worked out at 190 nM; in assay [3] it was 0.55 nM. Besides, the Ratio in assay [2] was 350.

On to `CCCc1ccc2c(n1)[C@@H](c1ccc(OC)cc1)[C@H](C(=O)O)[C@H]2c1ccc2c(c1)OCO2`, for which the values for the IC50 in assay [1] and in assay [3] were 30 nM and 0.37 nM, respectively. The Ratio in assay [2] is 81.

On to `CCCSc1ccc2c(n1)[C@@H](c1ccc(OC)cc1)[C@H](C(=O)O)C2c1ccc2c(c1)OCO2` (single isomer, unassigned), for which the values for the IC50 in assay [1] and in assay [3] were 53 nM and 8.2 nM, respectively. In addition, the Ratio in assay [2] was 6.5.

As for `CCNCc1ccc2c(n1)[C@@H](c1ccc(OC)cc1)[C@H](C(=O)O)C2c1ccc2c(c1)OCO2` (single isomer, unassigned), the IC50 in assay [1] was determined as 940 nM; in assay [3], 7 nM. Moreover, the Ratio in assay [2] was 130.

Values taken from ChEMBL document CHEMBL1134926, “Structure-Activity relationships of 2-substituted 5,7-Diarylcyclopenteno[1,2-b]pyridine-6-carboxylic acids as a novel class of endothelin receptor antagonists” (Bioorg Med Chem Lett, 2002).
